Measurements published in patent publication US8957108B2, “Use of 5,6-dimethylxanthenone-4-acetic acid as an antiviral agent” (University of Maryland, Baltimore, priority 2006, dated 2015).

Test system: C57BL/6J macrophages
[1] = DMXAA 3 h vs unstimulated wild-type cells
[2] = ratio of fold change, wild-type vs IFN-β-deficient cells

## Cc1ccc2c(=O)c3cccc(CC(=O)O)c3oc2c1C [DMXAA, 5,6-dimethylxanthenone-4-acetic acid]
[1]
  ZBP1 Fold Change: BL/6: 15.4 fold
  ZNF313 Fold Change: BL/6: 3.2 fold
Of the 136 genes, 3-fold difference wild-type vs IFN-β−/−
  number of modulated genes that are IFN-β-dependent: 77 genes
Of ˜14,000 genes analyzed, 3 h, vs medium-treated cells
  number of genes with ≧3-fold change in expression: 136 genes
[2]
  2310043N10RIK WT/KO: 3.2
  5830484A20RIK WT/KO: 1.4
  ABCB1 WT/KO: 1.1
  ABL1 WT/KO: 5.6
  ABLIM1 WT/KO: 7.1
  ACVR1B WT/KO: 1.9
  ADRB2 WT/KO: 1.9
  AFTIPHILIN WT/KO: 3.0
  AKAP12 WT/KO: 2.2
  AMPD3 WT/KO: 1.5
  AP2A2 WT/KO: 1.1
  APBB1IP WT/KO: 2.2
  APOBEC3F WT/KO: 2.5
  ARHGEF3 WT/KO: 2.1
  ARID3A WT/KO: 1.6
  ARL4C WT/KO: 1.0
  ASF1A WT/KO: 1.8
  ATRX WT/KO: 1.6
  B3GAT3 WT/KO: 5.5
  BACE1 WT/KO: 3.2
  BAMBI WT/KO: 2.7
  BCL2L1 WT/KO: 6.0
  BCL2 WT/KO: 5.4
  BHLHB2 WT/KO: 3.0
  BID WT/KO: 1.1
  C8ORF4 WT/KO: 8.7
  C9ORF26 WT/KO: 2.1
  CCL2 WT/KO: 21.7
  CCL3 WT/KO: 4.1
  CCL4 WT/KO: 1.9
  CCL5 WT/KO: 1.4
  CCL7 WT/KO: 3.2
  CCL13 WT/KO: 2.9
  CCND2 WT/KO: 3.2
  CCNE1 WT/KO: 1.1
  CCNF WT/KO: 4.4
  CCRN4L WT/KO: 3.6
  CD37 WT/KO: 4.7
  CD40 WT/KO: 7.9
  CD86 WT/KO: 1.8
  CD274 WT/KO: 5.9
  CDC6 WT/KO: 1.2
  CDC7 WT/KO: 2.2
  CDC37L1 WT/KO: 1.7
  CDKN1A WT/KO: 2.7
  CEBPB WT/KO: 1.7
  CITED2 WT/KO: 4.6
  CLCA1 WT/KO: 2.5
  CNR2 WT/KO: 4.0
  CREBBP WT/KO: 0.7
  CXCL10 WT/KO: 3.3
  DAXX WT/KO: 4.9
  DSCR1 WT/KO: 1.3
  FGD6 WT/KO: 1.5
  FGL2 WT/KO: 2.9
  GBP2 WT/KO: 3.1
  GBP4 WT/KO: 1.6
  GBP6 WT/KO: 1.6
  GYPC WT/KO: 1.3
  IFI16 WT/KO: 1.6
  IFI35 WT/KO: 3.3
  IFI203 WT/KO: 6.4
  IFI205 WT/KO: 3.5
  IFIH1 WT/KO: 1.4
  IFIT1 WT/KO: 1.5
  IFIT2 WT/KO: 1.9
  IFIT3 WT/KO: 3.1
  IFNA5 WT/KO: 12.9
  IFNA6 WT/KO: 8.6
  IFNB1 WT/KO: 178.6
  IFNG WT/KO: 0.8
  IGTP WT/KO: 11.2
  IIGP1 WT/KO: 18.7
  IL6 WT/KO: 41.8
  IL12B WT/KO: 3.2
  IL15RA WT/KO: 4.5
  IL15 WT/KO: 4.3
  IRF1 WT/KO: 5.9
  IRF2 WT/KO: 3.5
  IRGM WT/KO: 2.9
  ISG20 WT/KO: 6.1
  KATNA1 WT/KO: 2.1
  LGP2 WT/KO: 2.4
  LHX2 WT/KO: 11.9
  LOC129607 WT/KO: 7.6
  MAFK WT/KO: 3.0
  MARCH5 WT/KO: 2.5
  MOV10 WT/KO: 3.4
  MX1 WT/KO: 20.7
  MX2 WT/KO: 74.3
  NMI WT/KO: 2.9
  NP WT/KO: 2.5
  NT5C3 WT/KO: 3.6
  OAS1B WT/KO: 6.2
  OASL WT/KO: 1.8
  P4HA1 WT/KO: 1.2
  P8 WT/KO: 2.9
  PARP9 WT/KO: 2.8
  PELI1 WT/KO: 1.4
  PGF WT/KO: 1.3
  PLAU WT/KO: 1.7
  PPP1R15A WT/KO: 3.4
  PTX3 WT/KO: 4.0
  PVRL2 WT/KO: 2.1
  PVRL4 WT/KO: 2.1
  REL WT/KO: 2.8
  RGC32 WT/KO: 2.9
  RIPK2 WT/KO: 2.5
  RSAD2 WT/KO: 2.0
  SAP30 WT/KO: 2.4
  SAV1 WT/KO: 1.2
  SDC4 WT/KO: 1.2
  SECTM1 WT/KO: 15.0
  SLC7A2 WT/KO: 2.0
  SOAT1 WT/KO: 1.8
  SOCS1 WT/KO: 16.7
  STAT2 WT/KO: 2.3
  TGTP WT/KO: 38.6
  TLK2 WT/KO: 3.0
  TLR3 WT/KO: 6.8
  TMOD3 WT/KO: 1.5
  TNF WT/KO: 5.0
  TNFRSF11B WT/KO: 0.9
  TNFSF9 WT/KO: 3.0
  TOR1AIP1 WT/KO: 2.4
  TPST1 WT/KO: 1.1
  TREX1 WT/KO: 2.0
  TRIM21 WT/KO: 3.2
  TRIM25 WT/KO: 1.8
  TRIM34 WT/KO: 1.7
  USP18 WT/KO: 11.4
  VCAM1 WT/KO: 2.1
  ZBP1 WT/KO: 3.7
  ZNF313 WT/KO: 2.1
